Laboratory results reported in US8426370B2, “Diaryl hepatonoid-based compounds and use thereof” (priority 2008, dated 2013).
Read-outs that look alike come from different tables or passages of the source.

Experiments:
[1] = tested on: CEF (chicken embryo fibroblasts)
[2] = tested on: avian influenza virus KBNP-0028 (KCTC 10866BP); format: cell-based, A/chicken/Korea/SNU0028/2000(H9N2)

O=C(CCc1ccc(O)c(O)c1)C[C@H](CCc1ccc(O)c(O)c1)OC1OCC(O)C(O)C1OC(=O)/C=C/c1ccc(O)cc1 (stereo partly drawn) [12B-AJ-17A-1, (5S)-1,7-bis(3,4-dihydroxyphenyl)-3-heptanone-5-O-(2-coumaroyl)-β-D-xylopyranoside]
cytotoxicity (in words) [1]: no cytotoxicity | antiviral activity (in words) [2]: had antiviral activity | Number of wells wherein hemagglutination occurs (among 6 wells) ([2]; 12.5 μg/mL): 3 | Number of wells wherein hemagglutination occurs (among 6 wells) ([2]; 25 μg/mL): 3 | Number of wells wherein hemagglutination occurs (among 6 wells) ([2]; 50 μg/mL): 3 | Number of wells wherein hemagglutination occurs (among 6 wells) ([2]; 100 μg/mL): 3
